Reference: patent US11078216B2, “Bisaryl amides as NRF2 activators” (GLAXOSMITHKLINE INTELLECTUAL PROPERTY DEVELOPMENT LIMITED, priority 2016, dated 2021)

Tested on: NRF2 (NQO1 activity as marker for NRF2 activation), BEAS-2B cells
Assay: BEAS-2B NQO1 MTT Assay
Assay type: cell-based
Conditions: Homo sapiens, EC50 of NQO1 specific activity induction, 48 hours incubation, read-out: EC50
Method in brief: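 BEAS-2B cells were exposed to compound for 48 h at 37° C, 5% CO2, then lysed. NQO1 activity was measured kinetically by MTT reduction at 570 nm over 30 minutes; EC50 came from 3-parameter fit of Delta OD/min versus log concentration.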

## CC[C@@H]1CN(Cc2cc([C@H](c3ccc4c(nnn4CC)c3C)C(C)(C)C(=O)Nc3cccnc3)ccc2C)S(=O)(=O)c2cccnc2O1 [Example 116, (R)-3-(3-(((R)-4-Ethyl-1,1-dioxido-3,4-dihydro-2H-pyrido[2,3-b][1,4,5]oxathiazepin-2-yl)methyl)-4-methylphenyl)-3-(1-ethyl-4-methyl-1H-benzo[d][1,2,3]triazol-5-yl)-2,2-dimethyl-N-(pyridin-3-yl)propanamide]
  EC50: 10 to 100 nM

## CC[C@@H]1CN(Cc2cc([C@@H](c3ccc4c(nnn4CC)c3C)C(C)(C)C(=O)Nc3cncnc3)ccc2C)S(=O)(=O)c2cccnc2O1 [Example 117, (S)-3-(3-(((R)-4-Ethyl-1,1-dioxido-3,4-dihydro-2H-pyrido[2,3-b][1,4,5]oxathiazepin-2-yl)methyl)-4-methylphenyl)-3-(1-ethyl-4-methyl-1H-benzo[d][1,2,3]triazol-5-yl)-2,2-dimethyl-N-(pyrimidin-5-yl)propanamide]
  EC50: 1 to 10 nM

## CC[C@@H]1CN(Cc2cc([C@H](CC(=O)Nc3cnccn3)c3ccc4c(nnn4CC)c3C)ccc2C)S(=O)(=O)c2cccnc2O1 [Example 118, (S)-3-(3-(((R)-4-Ethyl-1,1-dioxido-3,4-dihydro-2H-pyrido[2,3-b][1,4,5]oxathiazepin-2-yl)methyl)-4-methylphenyl)-3-(1-ethyl-4-methyl-1H-benzo[d][1,2,3]triazol-5-yl)-N-(pyrazin-2-yl)propanamide]
  EC50: 10 to 100 nM

## CC[C@H]1Cc2ncccc2S(=O)(=O)N(Cc2cc([C@@H](c3ccc4c(nnn4CC)c3C)C(C)(C)C(=O)Nc3cccnc3)ccc2C)C1 [Example 119, (S)-3-(3-(((S)-4-Ethyl-1,1-dioxido-4,5-dihydropyrido[2,3-f][1,2]thiazepin-2(3H)-yl)methyl)-4-methylphenyl)-3-(1-ethyl-4-methyl-1H-benzo[d][1,2,3]triazol-5-yl)-2,2-dimethyl-N-(pyridin-3-yl)propanamide]
  EC50: 1 to 10 nM

## CC[C@@H]1CN(Cc2cc([C@@H](c3ccc4c(nnn4CC)c3C)C(C)(C)C(=O)Nc3cccnc3)ccc2C)S(=O)(=O)c2cccnc2O1 [Example 120, (S)-3-(3-(((R)-4-Ethyl-1,1-dioxido-3,4-dihydro-2H-pyrido[2,3-b][1,4,5]oxathiazepin-2-yl)methyl)-4-methylphenyl)-3-(1-ethyl-4-methyl-1H-benzo[d][1,2,3]triazol-5-yl)-2,2-dimethyl-N-(pyridin-3-yl)propanamide]
  EC50: 1 to 10 nM

## CC[C@@H]1CN(Cc2cc([C@H](CC(=O)Nc3ncccn3)c3ccc4c(nnn4CC)c3C)ccc2C)S(=O)(=O)c2cccnc2O1 [Example 121, (S)-3-(3-(((R)-4-Ethyl-1,1-dioxido-3,4-dihydro-2H-pyrido[2,3-b][1,4,5]oxathiazepin-2-yl)methyl)-4-methylphenyl)-3-(1-ethyl-4-methyl-1H-benzo[d][1,2,3]triazol-5-yl)-N-(pyrimidin-2-yl)propanamide]
  EC50: 100 to 1000 nM

## CC[C@@H]1CN(Cc2cc([C@H](CC(=O)Nc3cccnn3)c3ccc4c(nnn4CC)c3C)ccc2C)S(=O)(=O)c2cccnc2O1 [Example 122, (S)-3-(3-(((R)-4-Ethyl-1,1-dioxido-3,4-dihydro-2H-pyrido[2,3-b][1,4,5]oxathiazepin-2-yl)methyl)-4-methylphenyl)-3-(1-ethyl-4-methyl-1H-benzo[d][1,2,3]triazol-5-yl)-N-(pyridazin-3-yl)propanamide]
  EC50: 100 to 1000 nM

## CC[C@@H]1CN(Cc2cc([C@H](CC(=O)Nc3cnc(OC)nc3)c3ccc4c(nnn4CC)c3C)ccc2C)S(=O)(=O)c2cccnc2O1 [Example 123, (S)-3-(3-(((R)-4-Ethyl-1,1-dioxido-3,4-dihydro-2H-pyrido[2,3-b][1,4,5]oxathiazepin-2-yl)methyl)-4-methylphenyl)-3-(1-ethyl-4-methyl-1H-benzo[d][1,2,3]triazol-5-yl)-N-(2-methoxypyrimidin-5-yl)propanamide]
  EC50: 10 to 100 nM

## CCOCCOc1ncc(NC(=O)C(C)(C)[C@@H](c2ccc(C)c(CN3C[C@@H](CC)Oc4ncccc4S3(=O)=O)c2)c2ccc3c(nnn3CC)c2C)cn1 [Example 124, (S)—N-(2-(2-Ethoxyethoxy)pyrimidin-5-yl)-3-(3-(((R)-4-ethyl-1,1-dioxido-3,4-dihydro-2H-pyrido[2,3-b][1,4,5]oxathiazepin-2-yl)methyl)-4-methylphenyl)-3-(1-ethyl-4-methyl-1H-benzo[d][1,2,3]triazol-5-yl)-2,2-dimethylpropanamide]
  EC50: 1 to 10 nM

## CC[C@@H]1CN(Cc2cc([C@H](CC(=O)Nc3cnc(N4CCCCC4)nc3)c3ccc4c(nnn4CC)c3C)ccc2C)S(=O)(=O)c2cccnc2O1 [Example 125, (S)-3-(3-(((R)-4-Ethyl-1,1-dioxido-3,4-dihydro-2H-pyrido[2,3-b][1,4,5]oxathiazepin-2-yl)methyl)-4-methylphenyl)-3-(1-ethyl-4-methyl-1H-benzo[d][1,2,3]triazol-5-yl)-N-(2-(piperidin-1-yl)pyrimidin-5-yl)propanamide]
  EC50: 10 to 100 nM

## CC[C@@H]1CN(Cc2cc([C@H](CC(=O)Nc3cnc(NC)nc3)c3ccc4c(nnn4CC)c3C)ccc2C)S(=O)(=O)c2cccnc2O1 [Example 126, (S)-3-(3-(((R)-4-Ethyl-1,1-dioxido-3,4-dihydro-2H-pyrido[2,3-b][1,4,5]oxathiazepin-2-yl)methyl)-4-methylphenyl)-3-(1-ethyl-4-methyl-1H-benzo[d][1,2,3]triazol-5-yl)-N-(2-(methylamino)pyrimidin-5-yl)propanamide]
  EC50: 100 to 1000 nM

## CC[C@@H]1CN(Cc2cc([C@H](CC(=O)Nc3cnc(NC(CO)CO)nc3)c3ccc4c(nnn4CC)c3C)ccc2C)S(=O)(=O)c2cccnc2O1 [Example 127, (S)—N-(2-((1,3-Dihydroxypropan-2-yl)amino)pyrimidin-5-yl)-3-(3-(((R)-4-ethyl-1,1-dioxido-3,4-dihydro-2H-pyrido[2,3-b][1,4,5]oxathiazepin-2-yl)methyl)-4-methylphenyl)-3-(1-ethyl-4-methyl-1H-benzo[d][1,2,3]triazol-5-yl)propanamide]
  EC50: 1000 to 10000 nM

## CC[C@@H]1CN(Cc2cc([C@@H](c3ccc4c(nnn4CC)c3C)C(C)(C)C(=O)Nc3cnc(NC(CO)CO)nc3)ccc2C)S(=O)(=O)c2cccnc2O1 [Example 128, (S)-N-(2-((1,3-Dihydroxypropan-2-yl)amino)pyrimidin-5-yl)-3-(3-(((R)-4-ethyl-1,1-dioxido-3,4-dihydro-2H-pyrido[2,3-b][1,4,5]oxathiazepin-2-yl)methyl)-4-methylphenyl)-3-(1-ethyl-4-methyl-1H-benzo[d][1,2,3]triazol-5-yl)-2,2-dimethylpropanamide]
  EC50: 100 to 1000 nM

## CC[C@@H]1CN(Cc2cc([C@@H](c3ccc4c(nnn4CC)c3C)C(C)(C)C(=O)Nc3cnc(OCC(N)CO)nc3)ccc2C)S(=O)(=O)c2cccnc2O1 (stereo partly drawn) [Example 129, (3S)-N-(2-(2-Amino-3-hydroxypropoxy)pyri-midin-5-yl)-3-(3-(((R)-4-ethyl-1,1-dioxido-3,4-dihydro-2H-pyrido[2,3-b][1,4,5]oxathiazepin-2-yl)methyl)-4-methylphenyl)-3-(1-ethyl-4-methyl-1H-benzo[d][1,2,3]triazol-5-yl)-2,2-dimethylpropanamide]
  EC50: 100 to 1000 nM

## CC[C@@H]1CN(Cc2cc([C@@H](c3ccc4c(nnn4CC)c3C)C(C)(C)C(=O)Nc3cnc(N(C)C)nc3)ccc2C)S(=O)(=O)c2cccnc2O1 [Example 130, (S)-N-(2-(Dimethylamino)pyri-midin-5-yl)-3-(3-(((R)-4-ethyl-1,1-dioxido-3,4-dihydro-2H-pyrido[2,3-b][1,4,5]oxathiazepin-2-yl)methyl)-4-methylphenyl)-3-(1-ethyl-4-methyl-1H-benzo[d][1,2,3]triazol-5-yl)-2,2-dimethylpropanamide]
  EC50: 1 to 10 nM

## CC[C@@H]1CN(Cc2cc([C@@H](c3ccc4c(nnn4CC)c3C)C(C)(C)C(=O)Nc3cnc(S(C)(=O)=O)nc3)ccc2C)S(=O)(=O)c2cccnc2O1 [Example 131, (S)-3-(3-(((R)-4-Ethyl-1,1-dioxido-3,4-dihydro-2H-pyrido[2,3-b][1,4,5]oxathiazepin-2-yl)methyl)-4-methylphenyl)-3-(1-ethyl-4-methyl-1H-benzo[d][1,2,3]triazol-5-yl)-2,2-dimethyl-N-(2-(methylsulfonyl)pyrimidin-5-yl)propanamide]
  EC50: 10 to 100 nM

## CC[C@@H]1CN(Cc2cc([C@@H](c3ccc4c(nnn4CC)c3C)C(C)(C)NC(C)=O)ccc2C)S(=O)(=O)c2ccccc2O1 [Example 132, N—((S)-1-(3-(((R)-4-Ethyl-1,1-dioxido-3,4-dihydro-2H-benzo[b][1,4,5]oxathiazepin-2-yl)methyl)-4-methylphenyl)-1-(1-ethyl-4-methyl-1H-benzo[d][1,2,3]triazol-5-yl)-2-methylpropan-2-yl)acetamide]
  EC50: 10 to 100 nM

## CC[C@@H]1CN(Cc2cc([C@@H](c3ccc4c(nnn4CC)c3C)C(C)(C)NC(=O)CCCNC(C)=O)ccc2C)S(=O)(=O)c2ccccc2O1 [Example 133, 4-Acetamido-N-((S)-1-(3-(((R)-4-ethyl-1,1-dioxido-3,4-dihydro-2H-benzo[b][1,4,5]oxathiazepin-2-yl)methyl)-4-methylphenyl)-1-(1-ethyl-4-methyl-1H-benzo[d][1,2,3]triazol-5-yl)-2-methylpropan-2-yl)butanamide]
  EC50: 1000 to 10000 nM

## CC[C@@H]1CN(Cc2cc([C@@H](c3ccc4c(nnn4CC)c3C)C(C)(C)NC(=O)C3CCOC3)ccc2C)S(=O)(=O)c2ccccc2O1 (stereo partly drawn) [Example 134, N-((S)-1-(3-(((R)-4-Ethyl-1,1-dioxido-3,4-dihydro-2H-benzo[b][1,4,5]oxathiazepin-2-yl)methyl)-4-methylphenyl)-1-(1-ethyl-4-methyl-1H-benzo[d][1,2,3]triazol-5-yl)-2-methylpropan-2-yl)tetrahydrofuran-3-carboxamide]
  EC50: 10 to 100 nM

## CC[C@@H]1CN(Cc2cc([C@@H](c3ccc4c(nnn4CC)c3C)C(C)(C)NC(=O)C3CCCOC3)ccc2C)S(=O)(=O)c2ccccc2O1 (stereo partly drawn) [Example 135, N-((S)-1-(3-(((R)-4-Ethyl-1,1-dioxido-3,4-dihydro-2H-benzo[b][1,4,5]oxathiazepin-2-yl)methyl)-4-methylphenyl)-1-(1-ethyl-4-methyl-1H-benzo[d][1,2,3]triazol-5-yl)-2-methylpropan-2-yl)tetrahydro-2H-pyran-3-carboxamide]
  EC50: 10 to 100 nM
